Assay results: patent US6525001B1, “Substituted pyrimidine and pyridine herbicides” (Mid-American Commercialization Corporation, priority 1997, dated 2003)

Experiments:
Format in all cases: in vivo
Conditions in all cases: PREEMERGENCE
[1] = test system: cotton (Gossypium hirsutum); assay: Test C; parameters: key: 0 was no effect; 100 was complete control
[2] = test system: eastern black nightshade (Solanum ptycanthum); assay: Test C
[3] = test system: johnsongrass (Sorghum halepense); assay: Test C; parameters: key: 0 was no effect; 100 was complete control
soybean (Glycine max) = assay: Test C; parameters: key: 0 was no effect; 100 was complete control
B. signalgrass = assay: Test E pre-/postemergence/post directed; parameters: key: 0 is no effect; 100 is complete control
How it was run: (§1)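 Injury scored visually on a 0–100 scale (100 = complete control) 13 to 21 days after treatment. Test chemicals, formulated with surfactant in non-phytotoxic solvent, were applied to soil within one day of planting, to plants at two to four leaves (three to twenty cm), or as directed spray at plant base.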

[4] = test system: Spanishneedles (Bidens bipinnata); assay: Test E pre-/postemergence/post directed; parameters: key: 0 is no effect; 100 is complete control
How it was run: as §1

[5] = test system: alexandergrass (Brachiaria plantaginea); assay: Test E pre-/postemergence/post directed; parameters: key: 0 is no effect; 100 is complete control
How it was run: as §1

[6] = test system: annual bluegrass (Poa annua); assay: Test E pre-/postemergence/post directed; parameters: key: 0 is no effect; 100 is complete control
How it was run: as §1

[7] = test system: arrowleaf sida (Sida rhombifolia); assay: Test E pre-/postemergence/post directed; parameters: key: 0 is no effect; 100 is complete control
How it was run: as §1

[8] = test system: common chickweed (Stellaria media); assay: Test E pre-/postemergence/post directed; parameters: key: 0 is no effect; 100 is complete control
How it was run: as §1

[9] = test system: green foxtail (Setaria viridis); assay: Test E pre-/postemergence/post directed; parameters: key: 0 is no effect; 100 is complete control
How it was run: as §1

[10] = test system: johnson grass (Sorghum halepense); assay: Test E pre-/postemergence/post directed; parameters: key: 0 is no effect; 100 is complete control
How it was run: as §1

[11] = test system: leafy spurge (Euphorbia esula); assay: Test E pre-/postemergence/post directed; parameters: key: 0 is no effect; 100 is complete control
How it was run: as §1

[12] = test system: pitted morningglory (Ipomoea lacunosa); assay: Test E pre-/postemergence/post directed; parameters: key: 0 is no effect; 100 is complete control
How it was run: as §1

[13] = test system: quackgrass (Agropyron repens); assay: Test E pre-/postemergence/post directed; parameters: key: 0 is no effect; 100 is complete control
How it was run: as §1

[14] = test system: sandbur (Cenchrus echinatus); assay: Test E pre-/postemergence/post directed; parameters: key: 0 is no effect; 100 is complete control
How it was run: as §1

[15] = test system: ivyleaf speedwell (Veronica hederaefolia); assay: Test D; parameters: key: 0 is no effect; 100 is complete control
[16] = test system: blackgrass (Alopecurus myosuroides); assay: Test D
kochia (Kochia scoparia) = assay: Test D; parameters: key: 0 is no effect; 100 is complete control
rape (Brassica napus) = assay: Test D; parameters: key: 0 is no effect; 100 is complete control
[17] = test system: winter wheat (Triticum aestivum); assay: Test D

## Cc1cnc(-n2ccc(C(F)(F)F)n2)nc1Cc1cccc(C(F)(F)F)c1 [Example 2, 5-methyl-4-[[3-(trifluoromethyl)phenyl]methyl]-2-[3-(trifluoromethyl)-1H-pyrazol-1-yl]pyrimidine]
[1]; Rate 35 g/ha
  Plant response rating, Cotton: 0
[1]; Rate 70 g/ha
  Plant response rating, Cotton: 5
[1]; Rate 140 g/ha
  Plant response rating, Cotton: 15
[2]; Rate 35 g/ha
  Plant response rating, E. blacknightsh: 5
[2]; Rate 70 g/ha
  Plant response rating, E. blacknightsh: 5
[2]; Rate 140 g/ha
  Plant response rating, E. blacknightsh: 90
[3]; Rate 35 g/ha
  Plant response rating, Johnsongrass: 5
[3]; Rate 70 g/ha
  Plant response rating, Johnsongrass: 5
[3]; Rate 140 g/ha
  Plant response rating, Johnsongrass: 60
Soybean (Glycine max); Rate 35 g/ha
  Plant response rating, Soybean: 0
Soybean (Glycine max); Rate 70 g/ha
  Plant response rating, Soybean: 0
Soybean (Glycine max); Rate 140 g/ha
  Plant response rating, Soybean: 40
B. signalgrass; Rate 32 g/ha
  Plant response rating, B. signalgrass: 65
B. signalgrass; Rate 64 g/ha
  Plant response rating, B. signalgrass: 100
B. signalgrass; Rate 125 g/ha
  Plant response rating, B. signalgrass: 100
B. signalgrass; Rate 250 g/ha
  Plant response rating, B. signalgrass: 100
[4]; Rate 64 g/ha
  Plant response rating, Spanishneedles: 100
[4]; Rate 125 g/ha
  Plant response rating, Spanishneedles: 100
[4]; Rate 250 g/ha
  Plant response rating, Spanishneedles: 100
[4]; Rate 500 g/ha
  Plant response rating, Spanishneedles: 100
[5]; Rate 125 g/ha
  Plant response rating, Alexandergrass: 100
[5]; Rate 250 g/ha
  Plant response rating, Alexandergrass: 100
[5]; Rate 500 g/ha
  Plant response rating, Alexandergrass: 100
[6]; Rate 32 g/ha
  Plant response rating, A. bluegrass: 80
[6]; Rate 64 g/ha
  Plant response rating, A. bluegrass: 100
[6]; Rate 125 g/ha
  Plant response rating, A. bluegrass: 100
[6]; Rate 250 g/ha
  Plant response rating, A. bluegrass: 100
[7]; Rate 32 g/ha
  Plant response rating, Arrowleaf sida: 98
[7]; Rate 64 g/ha
  Plant response rating, Arrowleaf sida: 100
[7]; Rate 125 g/ha
  Plant response rating, Arrowleaf sida: 100
[7]; Rate 250 g/ha
  Plant response rating, Arrowleaf sida: 100
[8]; Rate 32 g/ha
  Plant response rating, Com. chickweed: 100
[8]; Rate 64 g/ha
  Plant response rating, Com. chickweed: 100
[8]; Rate 125 g/ha
  Plant response rating, Com. chickweed: 100
[8]; Rate 250 g/ha
  Plant response rating, Com. chickweed: 100
[9]; Rate 32 g/ha
  Plant response rating, Green foxtail: 90
[9]; Rate 64 g/ha
  Plant response rating, Green foxtail: 100
[9]; Rate 125 g/ha
  Plant response rating, Green foxtail: 100
[9]; Rate 250 g/ha
  Plant response rating, Green foxtail: 100
[10]; Rate 250 g/ha
  Plant response rating, Johnsongrass: 100
[10]; Rate 500 g/ha
  Plant response rating, Johnsongrass: 100
[11]; Rate 32 g/ha
  Plant response rating, Leafy spurge: 60
[11]; Rate 64 g/ha
  Plant response rating, Leafy spurge: 98
[11]; Rate 125 g/ha
  Plant response rating, Leafy spurge: 100
[11]; Rate 250 g/ha
  Plant response rating, Leafy spurge: 100
[12]; Rate 32 g/ha
  Plant response rating, P. morninglory: 100
[12]; Rate 64 g/ha
  Plant response rating, P. morninglory: 100
[12]; Rate 125 g/ha
  Plant response rating, P. morninglory: 100
[12]; Rate 250 g/ha
  Plant response rating, P. morninglory: 100
[12]; Rate 500 g/ha
  Plant response rating, P. morninglory: 100
[13]; Rate 32 g/ha
  Plant response rating, Quackgrass: 20
[13]; Rate 64 g/ha
  Plant response rating, Quackgrass: 90
[13]; Rate 125 g/ha
  Plant response rating, Quackgrass: 100
[13]; Rate 250 g/ha
  Plant response rating, Quackgrass: 100
[14]; Rate 250 g/ha
  Plant response rating, Sandbur: 100
[14]; Rate 500 g/ha
  Plant response rating, Sandbur: 100

## Cc1cnc(-c2ccc(C(F)(F)F)cc2)nc1Cc1cccc(C(F)(F)F)c1 [Example 1, 5-methyl-2-[4-(trifluoromethyl)phenyl]-4-[[3-(trifluoromethyl)phenyl]methyl]pyrimidine]
[1]; Rate 35 g/ha
  Plant response rating, Cotton: 30
[1]; Rate 70 g/ha
  Plant response rating, Cotton: 60
[1]; Rate 140 g/ha
  Plant response rating, Cotton: 100
[2]; Rate 35 g/ha
  Plant response rating, E. blacknightsh: 90
[2]; Rate 70 g/ha
  Plant response rating, E. blacknightsh: 90
[2]; Rate 140 g/ha
  Plant response rating, E. blacknightsh: 95
[3]; Rate 35 g/ha
  Plant response rating, Johnsongrass: 50
[3]; Rate 70 g/ha
  Plant response rating, Johnsongrass: 95
[3]; Rate 140 g/ha
  Plant response rating, Johnsongrass: 100
Soybean (Glycine max); Rate 35 g/ha
  Plant response rating, Soybean: 0
Soybean (Glycine max); Rate 70 g/ha
  Plant response rating, Soybean: 0
Soybean (Glycine max); Rate 140 g/ha
  Plant response rating, Soybean: 0
[15]; Rate 31 g/ha
  Plant response rating, Ivyleaf speedwe: 50
[15]; Rate 62 g/ha
  Plant response rating, Ivyleaf speedwe: 100
[15]; Rate 125 g/ha
  Plant response rating, Ivyleaf speedwe: 100
[15]; Rate 250 g/ha
  Plant response rating, Ivyleaf speedwe: 100
B. signalgrass; Rate 32 g/ha
  Plant response rating, B. signalgrass: 20
B. signalgrass; Rate 64 g/ha
  Plant response rating, B. signalgrass: 90
B. signalgrass; Rate 125 g/ha
  Plant response rating, B. signalgrass: 100
[4]; Rate 250 g/ha
  Plant response rating, Spanishneedles: 100
[5]; Rate 250 g/ha
  Plant response rating, Alexandergrass: 100
[6]; Rate 32 g/ha
  Plant response rating, A. bluegrass: 90
[6]; Rate 64 g/ha
  Plant response rating, A. bluegrass: 100
[6]; Rate 125 g/ha
  Plant response rating, A. bluegrass: 100
[7]; Rate 32 g/ha
  Plant response rating, Arrowleaf sida: 98
[7]; Rate 64 g/ha
  Plant response rating, Arrowleaf sida: 98
[7]; Rate 125 g/ha
  Plant response rating, Arrowleaf sida: 100
[8]; Rate 32 g/ha
  Plant response rating, Com. chickweed: 30
[8]; Rate 64 g/ha
  Plant response rating, Com. chickweed: 95
[8]; Rate 125 g/ha
  Plant response rating, Com. chickweed: 100
[9]; Rate 32 g/ha
  Plant response rating, Green foxtail: 100
[9]; Rate 64 g/ha
  Plant response rating, Green foxtail: 100
[9]; Rate 125 g/ha
  Plant response rating, Green foxtail: 100
[10]; Rate 250 g/ha
  Plant response rating, Johnsongrass: 100
[11]; Rate 32 g/ha
  Plant response rating, Leafy spurge: 75
[11]; Rate 64 g/ha
  Plant response rating, Leafy spurge: 95
[11]; Rate 125 g/ha
  Plant response rating, Leafy spurge: 100
[12]; Rate 125 g/ha
  Plant response rating, P. morninglory: 100
[12]; Rate 250 g/ha
  Plant response rating, P. morninglory: 100
[13]; Rate 32 g/ha
  Plant response rating, Quackgrass: 65
[13]; Rate 64 g/ha
  Plant response rating, Quackgrass: 80
[13]; Rate 125 g/ha
  Plant response rating, Quackgrass: 100
[14]; Rate 250 g/ha
  Plant response rating, Sandbur: 100
[16]; Rate 31 g/ha
  Plant response rating, Blackgrass: 30
[16]; Rate 62 g/ha
  Plant response rating, Blackgrass: 50
[16]; Rate 125 g/ha
  Plant response rating, Blackgrass: 60
[16]; Rate 250 g/ha
  Plant response rating, Blackgrass: 70
Kochia (Kochia scoparia); Rate 31 g/ha
  Plant response rating, Kochia: 40
Kochia (Kochia scoparia); Rate 62 g/ha
  Plant response rating, Kochia: 100
Kochia (Kochia scoparia); Rate 125 g/ha
  Plant response rating, Kochia: 100
Kochia (Kochia scoparia); Rate 250 g/ha
  Plant response rating, Kochia: 85
Rape (Brassica napus); Rate 31 g/ha
  Plant response rating, Rape: 30
Rape (Brassica napus); Rate 62 g/ha
  Plant response rating, Rape: 75
Rape (Brassica napus); Rate 125 g/ha
  Plant response rating, Rape: 100
Rape (Brassica napus); Rate 250 g/ha
  Plant response rating, Rape: 100
[17]; Rate 31 g/ha
  Plant response rating, Wheat (winter): 10
[17]; Rate 62 g/ha
  Plant response rating, Wheat (winter): 10
[17]; Rate 125 g/ha
  Plant response rating, Wheat (winter): 20
[17]; Rate 250 g/ha
  Plant response rating, Wheat (winter): 40
